Laboratory results from US20220168430A1, “THERAPEUTIC METHODS FOR TREATING HEPATITIS B” (priority 2019, published 2022).
Read-outs that look alike come from different tables or passages of the source.

Test system: HBV rcDNA
Assay: Dual agent combination in HepDE19 cells, rcDNA by Quantigene 2.0 bDNA assay (Examples 5-8)
Assay type: cell-based, HBV; HepDE19 (HepG2 human hepatocarcinoma derived)
Conditions: Hepatitis B virus; for EC50: read-out: Avg. Inhibitor A EC50
Description: In vitro dual agent combination studies were conducted using the method of Prichard and Shipman 1990 (Prichard M N, Shipman C, Jr. 1990. Antiviral Res 14:181-205). The HepDE19 cell culture system is a HepG2 (human hepatocarcinoma) derived cell line that supports HBV DNA replication and cccDNA formation under control the control of a CMV Tet-off promoter system (Guo et al. 2007. J Virol 81:12472-84). HepDE19 (50,000 cells/well) were plated in 96 well collagen-coated tissue-culture treated microtiter plates in DMEM/F12 medium supplemented with 10% fetal bovine serum+1% penicillin-streptomycin with tetracycline (1 μg/mL) and incubated in a humidified incubator at 37° C. and 5% CO2 overnight. Next day, the cells were switched to fresh medium without tetracycline and incubated for 4 hrs at 37° C. and 5% CO2. The cells were switched to fresh medium and treated with inhibitor A and inhibitor B, at concentration range spanning their respective EC50 values. […] The two inhibitors were tested both singly as well as in combinations in a checkerboard fashion such that each concentration of inhibitor A was combined with each concentration of inhibitor B to determine their combination effects on inhibition of rcDNA production. There were four replicates of each concentration combination in each experiment. The plates were incubated for 7 days in a humidified incubator at 37° C. and 5% CO2. The level of rcDNA present in the wells was measured using a Quantigene 2.0 bDNA assay kit (Affymetrix, Santa Clara, Calif.) with HBV specific custom probe set (genotype D ayw) and according to the manufacturer's instructions and read using a luminescence plate reader and the relative luminescence units (RLU) data generated from each well was calculated as % inhibition of the untreated control wells and analyzed using the MacSynergy II program to determine whether the combinations were synergistic, additive or antagonistic using the interpretive guidelines established by Prichard and Shipman (Prichard M N, Shipman C, Jr. 1990. […] Each experiment was repeated at least three times and the averages and standard deviations of individual determinations was calculated to derive the conclusion. Concurrently, in each experiment, the effect of inhibitor combinations on cell viability was assessed using replicate plates in triplicates that were used to determine the ATP content as a measure of cell viability using the Cell-Titer Glo reagent (Promega, Madison, Wis.) as per the manufacturer's instructions.

SMILES: Cn1cnc(COC(=O)N[C@H]2CCc3c(C(=O)Nc4ccc(F)c(Cl)c4)ccc(F)c32)n1 [Compound 1]
- inhibition at 0.005 µM (HepDE19, Cmpd 1 0.005 μM, ETV μM by grid row: r7 0.0250, r8 0.0083, r9 0.0028, r10 0.0009, r11 0.0003, r12 0, HepDE19 cells, Expt 1, read-out: AVERAGE % INHIBITION, rcDNA): -5.55%
- inhibition at 0.01 µM (HepDE19, Cmpd 1 0.010 μM, ETV μM by grid row: r7 0.0250, r8 0.0083, r9 0.0028, r10 0.0009, r11 0.0003, r12 0, HepDE19 cells, Expt 1, read-out: AVERAGE % INHIBITION, rcDNA): -2.14%
- inhibition at 0.02 µM (HepDE19, Cmpd 1 0.020 μM, ETV μM by grid row: r7 0.0250, r8 0.0083, r9 0.0028, r10 0.0009, r11 0.0003, r12 0, HepDE19 cells, Expt 1, read-out: AVERAGE % INHIBITION, rcDNA): 20.8%
- inhibition at 0.039 µM (HepDE19, Cmpd 1 0.039 μM, ETV μM by grid row: r7 0.0250, r8 0.0083, r9 0.0028, r10 0.0009, r11 0.0003, r12 0, HepDE19 cells, Expt 1, read-out: AVERAGE % INHIBITION, rcDNA): 28.3%
- inhibition at 0.156 µM (HepDE19, Cmpd 1 0.156 μM, ETV μM by grid row: r7 0.0250, r8 0.0083, r9 0.0028, r10 0.0009, r11 0.0003, r12 0, HepDE19 cells, Expt 1, read-out: AVERAGE % INHIBITION, rcDNA): 82%
- inhibition at 1.25 µM (HepDE19, Cmpd 1 1.25 μM, ETV μM by grid row: r7 0.0250, r8 0.0083, r9 0.0028, r10 0.0009, r11 0.0003, r12 0, HepDE19 cells, Expt 1, read-out: AVERAGE % INHIBITION, rcDNA): 98.9%
- EC50 (HepDE19, Cmpd 1 in combination study with ETV, n = 3): 59 nM
- EC50 (HepDE19, Cmpd 1 in combination study with SIRNA-NP, n = 3): 64 nM
- EC50 (HepDE19, Cmpd 1 in combination study with TAF, n = 4): 74 nM
- EC50 (HepDE19, Cmpd 1 in combination study with TDF, n = 3): 80 nM
- inhibition at 0.005 µM (HepDE19, Expt 1 (with TDF), Compound 1 0.005 μM alone, read-out: ADDITIVE INHIBITION): -44.9%
- inhibition at 0.005 µM (HepDE19, Expt 1 (with TDF), Compound 1 0.005 μM alone, read-out: AVERAGE % INHIBITION): -44.9%
- inhibition at 0.01 µM (HepDE19, Expt 1 (with TDF), Compound 1 0.010 μM alone, read-out: ADDITIVE INHIBITION): -40.7%
- inhibition at 0.01 µM (HepDE19, Expt 1 (with TDF), Compound 1 0.010 μM alone, read-out: AVERAGE % INHIBITION): -40.7%
- inhibition at 0.02 µM (HepDE19, Expt 1 (with TDF), Compound 1 0.020 μM alone, read-out: ADDITIVE INHIBITION): -21.6%
- inhibition at 0.02 µM (HepDE19, Expt 1 (with TDF), Compound 1 0.020 μM alone, read-out: AVERAGE % INHIBITION): -21.6%
- inhibition at 0.039 µM (HepDE19, Expt 1 (with TDF), Compound 1 0.039 μM alone, read-out: ADDITIVE INHIBITION): 0.64%
- inhibition at 0.039 µM (HepDE19, Expt 1 (with TDF), Compound 1 0.039 μM alone, read-out: AVERAGE % INHIBITION): 0.64%
- inhibition at 0.156 µM (HepDE19, Expt 1 (with TDF), Compound 1 0.156 μM alone, read-out: ADDITIVE INHIBITION): 68.2%
- inhibition at 0.156 µM (HepDE19, Expt 1 (with TDF), Compound 1 0.156 μM alone, read-out: AVERAGE % INHIBITION): 68.2%
- inhibition at 1.25 µM (HepDE19, Expt 1 (with TDF), Compound 1 1.250 μM alone, read-out: ADDITIVE INHIBITION): 97.3%
- inhibition at 1.25 µM (HepDE19, Expt 1 (with TDF), Compound 1 1.250 μM alone, read-out: AVERAGE % INHIBITION): 97.3%
- inhibition at 0.007 µM (HepDE19, Expt 1, Cmpd 1 0.007 μM alone, read-out: AVERAGE % INHIBITION): -23.5%
- inhibition at 0.067 µM (HepDE19, Expt 1, Cmpd 1 0.067 μM alone): 43.7%
- inhibition at 0.2 µM (HepDE19, Expt 1, Cmpd 1 0.200 μM alone): 78.4%
- inhibition at 0.6 µM (HepDE19, Expt 1, Cmpd 1 0.600 μM alone): 92.9%
- inhibition at 0.005 µM (HepDE19, Expt 1, Compound 1 0.005 μM alone, read-out: AVERAGE % INHIBITION): -81.7%
- inhibition at 0.01 µM (HepDE19, Expt 1, Compound 1 0.010 μM alone, read-out: AVERAGE % INHIBITION): -86.4%
- inhibition at 0.02 µM (HepDE19, Expt 1, Compound 1 0.020 μM alone, read-out: AVERAGE % INHIBITION): -84.7%
- inhibition at 0.039 µM (HepDE19, Expt 1, Compound 1 0.039 μM alone, read-out: AVERAGE % INHIBITION): -14.2%
- inhibition at 0.156 µM (HepDE19, Expt 1, Compound 1 0.156 μM alone, read-out: AVERAGE % INHIBITION): 59.4%
- inhibition at 1.25 µM (HepDE19, Expt 1, Compound 1 1.250 μM alone, read-out: AVERAGE % INHIBITION): 98.3%
- inhibition at 0.007 µM (HepDE19, Expt 2 (with TDF), Compound 1 0.007 μM alone, read-out: AVERAGE % INHIBITION): -35.1%
- inhibition at 0.067 µM (HepDE19, Expt 2 (with TDF), Compound 1 0.067 μM alone): 28.1%
- inhibition at 0.2 µM (HepDE19, Expt 2 (with TDF), Compound 1 0.200 μM alone): 80.5%
- inhibition at 0.6 µM (HepDE19, Expt 2 (with TDF), Compound 1 0.600 μM alone): 95.2%
- inhibition at 0.005 µM (HepDE19, Expt 2, Cmpd 1 0.005 μM alone, read-out: AVERAGE % INHIBITION): 5.58%
- inhibition at 0.01 µM (HepDE19, Expt 2, Cmpd 1 0.010 μM alone, read-out: AVERAGE % INHIBITION): -0.61%
- inhibition at 0.02 µM (HepDE19, Expt 2, Cmpd 1 0.020 μM alone, read-out: AVERAGE % INHIBITION): 6.6%
- inhibition at 0.039 µM (HepDE19, Expt 2, Cmpd 1 0.039 μM alone, read-out: AVERAGE % INHIBITION): 25.9%
- inhibition at 0.156 µM (HepDE19, Expt 2, Cmpd 1 0.156 μM alone, read-out: AVERAGE % INHIBITION): 84.1%
- inhibition at 1.25 µM (HepDE19, Expt 2, Cmpd 1 1.250 μM alone, read-out: AVERAGE % INHIBITION): 98.3%
